Drawing on ChEMBL document CHEMBL3352701, “Discovery of a 1,2-bis(3-indolyl)ethane that selectively inhibits the pyruvate kinase of methicillin-resistant Staphylococcus aureus over human isoforms” (Bioorg Med Chem Lett, 2014), this text covers IC50, inhibition and MIC for 16 compounds.

The term IC50 denotes the point on the concentration scale where inhibition reaches its midpoint. For orientation: inhibition means the change of the read-out against control, counted positive when it falls. For orientation: MIC means the smallest concentration in the dilution series that meets the test's criterion for growth inhibition. A low value points to greater potency.

SMILES strings stand for the structures. ≈ marks a conversion by molar mass, not a printed value.

Test [1] deals with T1, Pyruvate kinase (Staphylococcus aureus (strain MRSA252), UniProt Q6GG09).
T1 sequence (Q6GG09 whole entry): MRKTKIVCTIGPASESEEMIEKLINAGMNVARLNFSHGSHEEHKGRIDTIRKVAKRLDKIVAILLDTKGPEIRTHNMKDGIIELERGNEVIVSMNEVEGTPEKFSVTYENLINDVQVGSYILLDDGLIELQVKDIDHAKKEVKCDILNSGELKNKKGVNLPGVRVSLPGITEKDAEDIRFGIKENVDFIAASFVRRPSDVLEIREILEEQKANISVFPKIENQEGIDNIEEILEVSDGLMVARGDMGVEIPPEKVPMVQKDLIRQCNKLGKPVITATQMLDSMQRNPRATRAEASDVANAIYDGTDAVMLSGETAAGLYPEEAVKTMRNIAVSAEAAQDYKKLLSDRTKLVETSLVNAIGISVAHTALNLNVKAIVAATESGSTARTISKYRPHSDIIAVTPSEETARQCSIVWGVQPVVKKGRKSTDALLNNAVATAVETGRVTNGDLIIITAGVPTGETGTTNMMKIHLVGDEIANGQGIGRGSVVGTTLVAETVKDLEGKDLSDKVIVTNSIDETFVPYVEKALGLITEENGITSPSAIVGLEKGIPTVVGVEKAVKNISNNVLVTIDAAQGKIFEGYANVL
In words: Inhibition of purified methicillin-resistant Staphylococcus aureus N-terminal His-tagged pyruvate kinase by LDH-coupled continuous assay.

Test [2] concerns the target T2, Pyruvate kinase (Staphylococcus aureus (strain MRSA252)) (UniProt Q6GG09).
T2 sequence (whole entry): T1 sequence (Q6GG09 whole entry)
In words: Inhibition of purified methicillin-resistant Staphylococcus aureus N-terminal His-tagged pyruvate kinase at 100 uM by LDH-coupled continuous assay.

The target of test [3] is T3, Pyruvate kinase PKM (Homo sapiens, UniProt P14618). In words: Inhibition of purified human N-terminal His-tagged PK-M1 at 100 uM by LDH-coupled continuous assay.
Target sequence in this assay (P14618 2-531 limits assumed): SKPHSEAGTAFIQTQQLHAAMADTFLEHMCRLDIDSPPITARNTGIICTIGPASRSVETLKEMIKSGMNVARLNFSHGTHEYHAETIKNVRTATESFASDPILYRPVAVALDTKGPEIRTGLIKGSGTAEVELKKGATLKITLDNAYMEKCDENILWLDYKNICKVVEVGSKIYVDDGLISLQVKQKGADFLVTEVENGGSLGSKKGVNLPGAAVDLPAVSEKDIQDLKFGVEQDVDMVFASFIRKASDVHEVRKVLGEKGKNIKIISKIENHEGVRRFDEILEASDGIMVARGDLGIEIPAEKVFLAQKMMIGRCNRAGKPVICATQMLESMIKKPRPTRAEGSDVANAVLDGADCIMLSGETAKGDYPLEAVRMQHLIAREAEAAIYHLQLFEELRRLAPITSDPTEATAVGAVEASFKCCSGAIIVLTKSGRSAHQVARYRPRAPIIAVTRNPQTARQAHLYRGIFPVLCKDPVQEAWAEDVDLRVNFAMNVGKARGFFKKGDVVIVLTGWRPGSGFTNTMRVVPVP
For test [4], the target named is T3, Pyruvate kinase PKM. In words: Inhibition of purified human N-terminal His-tagged PK-M2 at 100 uM by LDH-coupled continuous assay.
Target sequence in this assay (P14618 2-531 limits assumed): as above
Test [5] concerns the target T4, Pyruvate kinase PKLR (Homo sapiens, UniProt P30613). In words: Inhibition of purified human N-terminal His-tagged PK-R at 100 uM by LDH-coupled continuous assay.
Target sequence in this assay (P30613 whole entry, looked up): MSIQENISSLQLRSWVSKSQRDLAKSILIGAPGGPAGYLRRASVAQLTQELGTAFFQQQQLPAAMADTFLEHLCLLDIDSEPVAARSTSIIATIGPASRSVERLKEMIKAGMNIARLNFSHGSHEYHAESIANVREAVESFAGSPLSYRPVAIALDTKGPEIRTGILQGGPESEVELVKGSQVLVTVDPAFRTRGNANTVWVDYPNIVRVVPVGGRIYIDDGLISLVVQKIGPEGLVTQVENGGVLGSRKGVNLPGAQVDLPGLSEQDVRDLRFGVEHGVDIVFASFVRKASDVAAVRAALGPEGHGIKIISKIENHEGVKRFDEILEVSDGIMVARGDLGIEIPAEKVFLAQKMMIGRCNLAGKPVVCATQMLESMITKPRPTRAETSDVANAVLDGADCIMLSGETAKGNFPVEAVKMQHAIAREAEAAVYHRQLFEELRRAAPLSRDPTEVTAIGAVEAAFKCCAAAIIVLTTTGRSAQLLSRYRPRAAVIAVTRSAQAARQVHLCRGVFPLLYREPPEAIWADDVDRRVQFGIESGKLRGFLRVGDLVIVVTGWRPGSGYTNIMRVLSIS
For test [6], the target named is T4, Pyruvate kinase PKLR. In words: Inhibition of purified human N-terminal His-tagged PK-L at 100 uM by LDH-coupled continuous assay.
Target sequence in this assay (P30613 whole entry, looked up): as above
Test [7] deals with T2, Pyruvate kinase (Staphylococcus aureus (strain MRSA252)). In words: Inhibition of purified methicillin-resistant Staphylococcus aureus N-terminal His-tagged pyruvate kinase at 150 uM by LDH-coupled continuous assay.
Test [8] has as its target T3, Pyruvate kinase PKM. In words: Inhibition of purified human N-terminal His-tagged PK-M1 at 150 uM by LDH-coupled continuous assay.
Target sequence in this assay (P14618 2-531 limits assumed): as the sequence (P14618 2-531 limits assumed) above
The target in test [9] is T3, Pyruvate kinase PKM. In words: Inhibition of purified human N-terminal His-tagged PK-M2 at 150 uM by LDH-coupled continuous assay.
Target sequence in this assay (P14618 2-531 limits assumed): as above
Test [10] concerns the target T4, Pyruvate kinase PKLR. In words: Inhibition of purified human N-terminal His-tagged PK-R at 150 uM by LDH-coupled continuous assay.
Target sequence in this assay (P30613 whole entry, looked up): as the sequence (P30613 whole entry, looked up) above
Test [11] concerns the target T4, Pyruvate kinase PKLR. In words: Inhibition of purified human N-terminal His-tagged PK-L at 150 uM by LDH-coupled continuous assay.
Target sequence in this assay (P30613 whole entry, looked up): as above
The target in test [12] is T2, Pyruvate kinase (Staphylococcus aureus (strain MRSA252)). In words: Inhibition of purified methicillin-resistant Staphylococcus aureus N-terminal His-tagged pyruvate kinase at 50 uM by LDH-coupled continuous assay.
The target in test [13] is T3, Pyruvate kinase PKM. In words: Inhibition of purified human N-terminal His-tagged PK-M1 at 50 uM by LDH-coupled continuous assay.
Target sequence in this assay (P14618 2-531 limits assumed): as the sequence (P14618 2-531 limits assumed) above
Test [14] addresses T3, Pyruvate kinase PKM. In words: Inhibition of purified human N-terminal His-tagged PK-M2 at 50 uM by LDH-coupled continuous assay.
Target sequence in this assay (P14618 2-531 limits assumed): as above
Test [15] concerns the target T4, Pyruvate kinase PKLR. In words: Inhibition of purified human N-terminal His-tagged PK-R at 50 uM by LDH-coupled continuous assay.
Target sequence in this assay (P30613 whole entry, looked up): as the sequence (P30613 whole entry, looked up) above
For test [16], the target named is T4, Pyruvate kinase PKLR. In words: Inhibition of purified human N-terminal His-tagged PK-L at 50 uM by LDH-coupled continuous assay.
Target sequence in this assay (P30613 whole entry, looked up): as above
Test [17] has as its target T3, Pyruvate kinase PKM. In words: Inhibition of purified human N-terminal His-tagged PK-M1 at 40 uM by LDH-coupled continuous assay.
Test [18] deals with T3, Pyruvate kinase PKM. In words: Inhibition of purified human N-terminal His-tagged PK-M2 at 40 uM by LDH-coupled continuous assay.
Test [19] has as its target T4, Pyruvate kinase PKLR. In words: Inhibition of purified human N-terminal His-tagged PK-R at 40 uM by LDH-coupled continuous assay.
The target of test [20] is T4, Pyruvate kinase PKLR. In words: Inhibition of purified human N-terminal His-tagged PK-L at 40 uM by LDH-coupled continuous assay.
The target in test [21] is T2, Pyruvate kinase (Staphylococcus aureus (strain MRSA252)). The following applies: 40 uM.
Description: Inhibition of purified methicillin-resistant Staphylococcus aureus N-terminal His-tagged pyruvate kinase at 40 uM by LDH-coupled continuous assay
For test [22], the target named is T3, Pyruvate kinase PKM. In words: Inhibition of purified human N-terminal His-tagged PK-M1 by LDH-coupled continuous assay.
Target sequence in this assay (P14618 whole entry): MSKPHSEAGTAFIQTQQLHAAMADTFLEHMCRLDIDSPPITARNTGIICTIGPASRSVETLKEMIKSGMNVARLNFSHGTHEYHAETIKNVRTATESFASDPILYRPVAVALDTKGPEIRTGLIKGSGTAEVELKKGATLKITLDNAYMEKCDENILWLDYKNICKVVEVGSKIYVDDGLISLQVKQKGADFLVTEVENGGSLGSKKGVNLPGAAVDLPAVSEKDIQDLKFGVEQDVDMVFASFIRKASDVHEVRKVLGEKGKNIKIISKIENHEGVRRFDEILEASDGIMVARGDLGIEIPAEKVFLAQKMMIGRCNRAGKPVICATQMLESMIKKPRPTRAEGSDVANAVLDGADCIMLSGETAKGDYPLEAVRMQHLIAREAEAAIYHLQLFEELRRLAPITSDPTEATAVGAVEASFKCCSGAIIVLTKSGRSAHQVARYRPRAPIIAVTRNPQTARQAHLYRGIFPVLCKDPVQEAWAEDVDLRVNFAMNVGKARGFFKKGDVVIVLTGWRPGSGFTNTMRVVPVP
The target in test [23] is T3, Pyruvate kinase PKM. In words: Inhibition of purified human N-terminal His-tagged PK-M2 by LDH-coupled continuous assay.
Target sequence in this assay (P14618 whole entry): as above
The target of test [24] is T4, Pyruvate kinase PKLR. In words: Inhibition of purified human N-terminal His-tagged PK-R by LDH-coupled continuous assay.
Target sequence in this assay (P30613 whole entry): as the sequence (P30613 whole entry, looked up) above
Test [25] has as its target T4, Pyruvate kinase PKLR. In words: Inhibition of purified human N-terminal His-tagged PK-L by LDH-coupled continuous assay.
Target sequence in this assay (P30613 whole entry): as the sequence (P30613 whole entry, looked up) above
Test [26] has as its target T2, Pyruvate kinase (Staphylococcus aureus (strain MRSA252)). In words: Inhibition of purified methicillin-resistant Staphylococcus aureus N-terminal His-tagged pyruvate kinase at 10 uM by LDH-coupled continuous assay.
Test [27] addresses T3, Pyruvate kinase PKM. Conditions: 10 uM.
Description: Inhibition of purified human N-terminal His-tagged PK-M1 at 10 uM by LDH-coupled continuous assay
Test [28] concerns the target T3, Pyruvate kinase PKM. Conditions: 10 uM. This is another data set of the same source.
Description: Inhibition of purified human N-terminal His-tagged PK-M2 at 10 uM by LDH-coupled continuous assay
Test [29] has as its target T4, Pyruvate kinase PKLR. Conditions: 10 uM.
Description: Inhibition of purified human N-terminal His-tagged PK-R at 10 uM by LDH-coupled continuous assay
Test [30] deals with T4, Pyruvate kinase PKLR. The following applies: 10 uM. The source holds these as a separate data set.
Description: Inhibition of purified human N-terminal His-tagged PK-L at 10 uM by LDH-coupled continuous assay
In test [31] the test system is Staphylococcus aureus. In words: Antimicrobial activity against Staphylococcus aureus ATCC 29213 after 24 hrs by CLSI microtiter method. Format: functional. Conditions: ATCC 29213, 24 h.

`Clc1ccc2[nH]cc(CCc3c[nH]c4ccccc34)c2c1`: the IC50 in test [1] (read-out: IC50) stood at 12.5 µM. The inhibition in test [2] stood at 114%; in test [3], 30.8%; in test [4] it was 98.7%; in test [5], 95%; in [6] it was 103%.

Consider `Clc1ccc2c(CCc3c[nH]c4ccccc34)c[nH]c2c1`, for which the IC50 in test [1] (read-out: IC50) came to 272 µM.

For the compound `Fc1ccc2[nH]cc(CCc3c[nH]c4ccccc34)c2c1`, the IC50 in [1] (read-out: IC50) was determined as 19.8 µM. Also, the inhibition in test [7] was found to be 108%; in test [8], 55.1%; in [9], 85.5%; in test [10], 99%; in [11], 101%.

On to `COc1ccc2[nH]cc(CCc3c[nH]c4ccccc34)c2c1`, for which, in [1] (read-out: IC50), the IC50 came to 38.6 µM.

Turning to `COc1ccc2c(CCc3c[nH]c4ccccc34)c[nH]c2c1`, the IC50 result in test [1] is on record as “Not Active”.

On to `Cc1ccc2[nH]cc(CCc3c[nH]c4ccccc34)c2c1`, for which the IC50 in test [1] (read-out: IC50) was determined as 32.8 µM.

With `O=[N+]([O-])c1cccc2[nH]cc(CCc3c[nH]c4ccccc34)c12`, in test [1] (read-out: IC50), the IC50 was determined as 5.7 µM. The inhibition was 92.8% in test [12]; 2.2% in [13]; 50.1% in test [14]; 71.8% in [15]; 75.5% in test [16].

For the compound `N#Cc1ccc2[nH]cc(CCc3c[nH]c4ccccc34)c2c1`, in test [1] (read-out: IC50), the IC50 was found to be 4.2 µM. Besides, the inhibition in [17] was -0.5%; in test [18], 1.1%; in test [19] it was 53.5%; in test [20], 62.4%; in [21], 82.9%.

As to `FC(F)(F)c1ccc2[nH]cc(CCc3c[nH]c4ccccc34)c2c1`, in [1] (read-out: IC50), the IC50 is 13.3 µM. Moreover, the inhibition in test [2] amounted to 88.4%; in test [3] it was 36.7%; in [4], 95.2%; in [5], 91.4%; in [6], 85.4%.

For the compound `Fc1cc(Cl)cc2c(CCc3c[nH]c4ccccc34)c[nH]c12`, in test [1] (read-out: IC50), the IC50 worked out at 4.6 µM. Besides, the inhibition is 88.2% in test [12]; 1.1% in test [13]; 80.9% in test [14]; 85.4% in [15]; 95.7% in [16].

Turning to `c1ccc2c(CCc3c[nH]c4ccccc34)c[nH]c2c1`, in test [1] (read-out: IC50), the IC50 is 57.3 µM.

Consider `O=[N+]([O-])c1ccc2c(CCc3c[nH]c4ccccc34)c[nH]c2c1`, for which the IC50 in test [1] (read-out: IC50) is 0.9 µM; in [22], 95.9 µM; in test [23], 54.6 µM; in test [24], 18.2 µM; in test [25], 21.5 µM. In addition, the inhibition in [26] was 59.6%; in [27], 1.1%; in test [28], 2.8%; in test [29], 3%; in test [30], 3.3%.

For `O=C(C(=O)c1c[nH]c2ccccc12)c1c[nH]c2ccccc12`, the IC50 in test [1] (read-out: IC50) stood at 50.2 µM.

On to `N#Cc1ccc2c(CCc3c[nH]c4ccccc34)c[nH]c2c1`, for which the IC50 entry in test [1] is listed as “Not Active”. Besides, 16 µg/mL (≈ 56.1 µM) was the least that counted as inhibitory in test [31] (MIC).

On to `CCN(C(C)=O)c1ccc2c(CCc3c[nH]c4ccccc34)c[nH]c2c1`, for which the IC50 in test [1] (read-out: IC50) turned out to be 148 µM.

Take `Cc1ccc2c(CCc3c[nH]c4ccccc34)c[nH]c2c1`: the IC50 in test [1] (read-out: IC50) came to 294 µM.
